Measured values taken from US20250011881A1, “MYC-HSF1 DUAL AMPLIFICATION AS A BIOMARKER FOR CANCER TREATMENT” (The Trustees of Indiana University, priority 2023, published 2025).
Values joined by “and” are separate entries in the source; they are usually repeats but may differ in a detail not shown here. Equal entries are not always repeated. Structures can show the parent of a compound that is named as a salt.

test system: ovarian cancer cells with (OVCAR8, OVCAR4) or without (OVSAHO, CAOV3) MYC-HSF1 amplification; assay: Epigenetic inhibitor drug screen, cell viability (Cell Titer Blue); format: cell-based; conditions: not given

First: CCCCCCCCCCCCCC(=O)O[C@@H]1[C@@H](C)[C@@]2(O)[C@@H](C=C(CO)C[C@]3(O)C(=O)C(C)=C[C@@H]23)[C@@H]2C(C)(C)[C@]12OC(C)=O [12-O-tetradecanoyl phorbol-13-acetate]
Second: CCC(=O)CCCCC[C@@H]1NC(=O)[C@H]2CCCCN2C(=O)[C@H]([C@@H](C)CC)NC(=O)[C@H](Cc2cn(OC)c3ccccc23)NC1=O [Apicidin]
The “Non Amp - AMP (POC) 10 uM” value of the first is lower: −2.545 POC for the first, 45.97 POC for the second.

Going from `NC(=O)c1ncn([C@@H]2O[C@H](CO)[C@@H](O)[C@H]2O)c1N` [AICAR] to `O=C(Nc1cccc(Nc2nccc(Nc3cccc(C(F)(F)F)c3)n2)c1)C1CC1` [Aurora Kinase Inhibitor III], the “Non Amp - AMP (POC) 10 uM” value falls from 11.27 POC to −0.3226 POC.

For `CCN1CCN(C(=O)Cc2ccc(Nc3ncc(F)c(Nc4ccc(C(=O)Nc5ccccc5Cl)cc4)n3)cc2)CC1` [Aurora A Inhibitor I], the “Non Amp - AMP (POC) 10 uM” value was 8.339 POC.

same assay, conditions: 10 uM, 48 hrs; average relative cell viability (vs 1% DMSO) of non-amplified cells (OVSAHO, CAOV3) minus that of MYC-HSF1 amplified cells (OVCAR8, OVCAR4); positive = greater response in amplified cells

First: BrC1C(Br)C(Br)C(Br)C(Br)C1Br (stereo not shown) [1,2,3,4,5,6-Hexabromocyclohexane]
Second: COc1cc2c(cc1O)CC[C@@H]1[C@@H]2CC[C@]2(C)[C@@H](O)CC[C@@H]12 [2-Methoxyestradiol (2-MeOE2), 2-Methoxyestradiol]
The “Non Amp - AMP (POC) 10 uM” value of the first is lower: −13.98 POC for the first, 23.41 POC for the second.

Compared with `C#CCC(CCCCCC)C(=O)O` (stereo not shown) [2-hexyl-4-Pentynoic Acid], `CCCCC[C@H](O)CC(=O)CCc1ccc(O)c(OC)c1` [6-gingerol] is lower in “Non Amp - AMP (POC) 10 uM” value: 2.599 POC for the first, −6.674 POC for the second.

First: O=c1[nH]cnc2ccccc12 [4-HQN]
Second: Nc1ccccc1NC(=O)c1cnccn1 [BG45]
The “Non Amp - AMP (POC) 10 uM” value of the first is lower: −1.37 POC for the first, 25.74 POC for the second.

Compared with `O=C(CCCCCCC(=O)Nc1ccc(I)cc1)NO` [4-iodo-SAHA], `O=C(CCCCCCNC(=O)c1cnc(N(c2ccccc2)c2ccccc2Cl)nc1)NO` [ACY-241] is higher in “Non Amp - AMP (POC) 10 uM” value: 29.5 POC for the first, 35.17 POC for the second.

Going from `Cn1cc(-c2ccc(S(=O)(=O)n3ccc(/C=C/C(=O)Nc4ccccc4N)c3)cc2)cn1` [4SC-202] to `Cn1cc(CCn2cnc(-c3cnn(C)c3)c2-c2ccc(C#N)cc2)cn1` [BAZ2-ICR], the “Non Amp - AMP (POC) 10 uM” value falls from 15.57 POC to 13.57 POC.

Compared with `Cc1cn([C@H]2C[C@H](O)[C@@H](CO)O2)c(=O)nc1N` [5-Methyl-2′-deoxycytidine], `CN(C)Cc1ccc(-c2nc3cccc4c3n2CCNC4=O)cc1` [AG-14361] is higher in “Non Amp - AMP (POC) 10 uM” value: −10.37 POC for the first, 0.2059 POC for the second.

Going from `O=C([O-])[C@@]1(CCCCCCOc2ccc(Cl)cc2)CO1.[Na+]` [(R)-(+)-Etomoxir sodium salt] to `CCN(CC)Cc1cc(Nc2ccnc3cc(Cl)ccc23)ccc1O` [Amodiaquine dihydrochloride dihydrate], the “Non Amp - AMP (POC) 10 uM” value falls from 3.941 POC to −0.1196 POC.

First: Clc1cc2c(NC3CCCC3)nnc(-c3ccncc3)c2cc1Cl [A-196]
Second: COc1cc2nc(N3CCCN(C)CC3)nc(NC3CCN(Cc4ccccc4)CC3)c2cc1OC [BIX 01294]
The “Non Amp - AMP (POC) 10 uM” value of the first is higher: 2.334 POC for the first, −4.372 POC for the second.

First: N#Cc1c(O)c2c(-c3ccc(-c4ccccc4O)cc3)csc2[nH]c1=O [A-769662]
Second: N#C/C(=C/c1ccc(O)c(O)c1)C(=O)NCc1ccccc1 [AG-490]
The “Non Amp - AMP (POC) 10 uM” value of the first is higher: −2.694 POC for the first, −10.83 POC for the second.

Compared with `NC(=O)c1cccc2[nH]c(-c3ccc([C@@H]4CCCN4)cc3F)nc12` [A-966492], `COC1CCN(C(=O)c2cc(Cc3n[nH]c(=O)c4ccccc34)ccc2F)CC1` [AZD2461] is lower in “Non Amp - AMP (POC) 10 uM” value: 13.6 POC for the first, 9.593 POC for the second.

Compared with `O=C(NCc1ccncc1)C12CC3CC(C1)CC(c1ccc(Cl)cc1)(C3)C2` [ABC294640], `Cc1cc(-c2nc(-c3ccc(OC(F)(F)F)cc3)no2)nn1Cc1ccnc(N2CCN(C3CC3)CC2)c1` [BAY 87-2243] is higher in “Non Amp - AMP (POC) 10 uM” value: 4.657 POC for the first, 11.79 POC for the second.

First: Cc1csc(-c2nnc(Nc3ccc(Oc4ncccc4-c4ccnc(N)n4)cc3)c3ccccc23)c1 [AMG-900]
Second: CC(C)[C@H](C(=O)Nc1ccc(C(=O)NO)cc1)c1ccccc1 [AR-42 (OSU-HDAC42)]
The “Non Amp - AMP (POC) 10 uM” value of the first is higher: 4.126 POC for the first, −6.14 POC for the second.

Compared with `O=C(Nc1c[nH]nc1-c1nc2ccc(CN3CCOCC3)cc2[nH]1)NC1CC1` [AT9283], `Cc1ccc2nc(NCCN)c3ncc(C)n3c2c1` [BMS-345541 (free base)] is higher in “Non Amp - AMP (POC) 10 uM” value: −1.133 POC for the first, 19.27 POC for the second.

Compared with `N[C@@H]1CCCN(c2c(/C=C3\SC(=O)NC3=O)cccc2-c2ccccc2)C1` [AZD1208], `CCOC(=O)C1=CN(Cc2ccccc2)C=C(C(=O)OCC)C1c1ccccc1` [BML-278] is lower in “Non Amp - AMP (POC) 10 uM” value: 10.38 POC for the first, 4.191 POC for the second.

Going from `Cc1cc(Nc2nc(N[C@@H](C)c3ncc(F)cn3)ncc2Cl)[nH]n1` [AZD1480] to `Cn1ncnc1[C@H]1c2n[nH]c(=O)c3cc(F)cc(c23)N[C@@H]1c1ccc(F)cc1` [BMN 673], the “Non Amp - AMP (POC) 10 uM” value falls from 0.4361 POC to −11.28 POC.

Going from `COc1nnc2ccc(N3CCC(c4ccc(OCCN5CCN(C)C(=O)[C@H]5C)cc4)CC3)nn12` [AZD 5153] to `CCn1c(C(=O)N(C2CC2)C2CC2)cc2c3c(ncn3C)c(Nc3cc(C)n(C)n3)nc21` [BMS-911543], the “Non Amp - AMP (POC) 10 uM” value falls from 11.52 POC to 1.85 POC.

Going from `COc1cc(-c2cn(C)c(=O)c3cnccc23)cc(OC)c1CN(C)C` [BI-7273] to `COc1cc(-c2cn(C)c(=O)c3cnccc23)c(OC)cc1CN(C)C` [BI-9564], the “Non Amp - AMP (POC) 10 uM” value rises from −8.336 POC to 11 POC.

With `Cn1ncnc1C1c2n[nH]c(=O)c3cc(F)cc(c23)NC1c1ccc(F)cc1` (stereo not shown) [BMN-673 8R, 9S] the “Non Amp - AMP (POC) 10 uM” value was −2.489 POC.

same assay, conditions: 10 uM, 48 hrs; average relative cell viability (vs 1% DMSO) of non-amplified cells (OVSAHO, CAOV3) minus that of MYC-HSF1 amplified cells (OVCAR8, OVCAR4); positive = greater response in amplified cells; 10 µM

Compared with `N[C@@H]1C[C@H]1c1ccccc1` (racemic) [Tranylcypromine (hydrochloride), Tranylcypromine], `Nc1ccccc1NC(=O)CCCCCCC(=O)Nc1ccccc1` [BML-210] is higher in “Non Amp - AMP (POC) 10 uM” value: 0.7437 POC for the first, 30.7 POC for the second.

Going from `O=C(O)c1ccnc(C(=O)O)c1` [2,4-Pyridinedicarboxylic Acid (hydrate), 2,4-Pyridinedicarboxylic Acid] to `O=Nc1ccc(O)c2ncccc12` [5-Nitroso-8-quinolinol], the “Non Amp - AMP (POC) 10 uM” value falls from 10.85 POC to 9.462 POC.

Going from `O=C(O)c1ccnc(C(=O)O)c1` [2,4-Pyridinedicarboxylic Acid] to `Nc1nccc2c1ncn2[C@@H]1C=C(CO)[C@@H](O)[C@H]1O` [3-Deazaneplanocin A (DZNep) hydrochloride], the “Non Amp - AMP (POC) 10 uM” value rises from −1.887 POC to 8.136 POC.

Going from `Nc1nccc2c1ncn2[C@@H]1C=C(CO)[C@@H](O)[C@H]1O` [3-Deazaneplanocin A] to `Nc1nc2nc[nH]c2c(=S)[nH]1` [6-Thioguanine], the “Non Amp - AMP (POC) 10 uM” value falls from 28.52 POC to 12.09 POC.

Compared with `Cl.O=C([C@@H](Cc1cccc(C(F)(F)F)c1)NS(=O)(=O)c1cc(F)c2c(c1)CCNC2)N1CCCC1` [(R)-PFI-2 (hydrochloride)], `CC[C@@H]1C(=O)N(C)c2cnc(Nc3ccc(C(=O)NC4CCN(C)CC4)cc3OC)nc2N1C1CCCC1` [BI-2536] is lower in “Non Amp - AMP (POC) 10 uM” value: 19.35 POC for the first, 15.69 POC for the second.

Going from `COc1cc2c(cc1OCCCN1CCCC1)N=C(N)C21CCC1` [A-366] to `C[C@]1(c2nc3c(C(N)=O)cccc3[nH]2)CCCN1` [ABT-888 (Veliparib), Veliparib], the “Non Amp - AMP (POC) 10 uM” value falls from 11.91 POC to −1.058 POC.

Going from `N#C/C(=C\c1ccc(-c2cc(Cl)ccc2Cl)o1)C(=O)Nc1cccc2ncccc12` [AGK 2] to `CCCCCCCCCCCCCCCc1cccc(O)c1C(=O)O` [Anacardic acid], the “Non Amp - AMP (POC) 10 uM” value falls from 24.17 POC to 17.46 POC.

With `O=C(Nc1ccc2c(O)cc(S(=O)(=O)O)cc2c1)Nc1ccc2c(O)cc(S(=O)(=O)O)cc2c1` [AMI-1] the “Non Amp - AMP (POC) 10 uM” value was 19.64 POC and 18.34 POC.

same assay, conditions: 10 uM, 48 hrs; average relative cell viability (vs 1% DMSO) of non-amplified cells (OVSAHO, CAOV3) minus that of MYC-HSF1 amplified cells (OVCAR8, OVCAR4); positive = greater response in amplified cells; listed as A 366, 10 µM

`COc1cc2c(cc1OCCCN1CCCC1)N=C(N)C21CCC1` [A-366] was tested, and the “Non Amp - AMP (POC) 10 uM” value was 3.68 POC.

same assay, conditions: 10 uM, 48 hrs; average relative cell viability (vs 1% DMSO) of non-amplified cells (OVSAHO, CAOV3) minus that of MYC-HSF1 amplified cells (OVCAR8, OVCAR4); positive = greater response in amplified cells; listed as AGK2, 10 µM

`N#C/C(=C\c1ccc(-c2cc(Cl)ccc2Cl)o1)C(=O)Nc1cccc2ncccc12` [AGK 2] was tested, and the “Non Amp - AMP (POC) 10 uM” value was 19.96 POC.

same assay, conditions: 10 uM, 48 hrs; average relative cell viability (vs 1% DMSO) of non-amplified cells (OVSAHO, CAOV3) minus that of MYC-HSF1 amplified cells (OVCAR8, OVCAR4); positive = greater response in amplified cells; listed as Anacardic Acid, 10 µM

In the case of `CCCCCCCCCCCCCCCc1cccc(O)c1C(=O)O` [Anacardic acid], the “Non Amp - AMP (POC) 10 uM” value is reported as 5.093 POC.

same assay, conditions: 10 uM, 48 hrs; average relative cell viability (vs 1% DMSO) of non-amplified cells (OVSAHO, CAOV3) minus that of MYC-HSF1 amplified cells (OVCAR8, OVCAR4); positive = greater response in amplified cells; listed as BI 2536, 10 µM

With `CC[C@@H]1C(=O)N(C)c2cnc(Nc3ccc(C(=O)NC4CCN(C)CC4)cc3OC)nc2N1C1CCCC1` [BI-2536] the “Non Amp - AMP (POC) 10 uM” value was −3.682 POC.

same assay, conditions: 10 uM, 48 hrs; average relative cell viability (vs 1% DMSO) of non-amplified cells (OVSAHO, CAOV3) minus that of MYC-HSF1 amplified cells (OVCAR8, OVCAR4); positive = greater response in amplified cells; listed as BML-210(CAY10433), 10 µM

In the case of `Nc1ccccc1NC(=O)CCCCCCC(=O)Nc1ccccc1` [BML-210], the “Non Amp - AMP (POC) 10 uM” value is reported as 14.33 POC.

same assay, conditions: 10 uM, 48 hrs; average relative cell viability (vs 1% DMSO) of non-amplified cells (OVSAHO, CAOV3) minus that of MYC-HSF1 amplified cells (OVCAR8, OVCAR4); positive = greater response in amplified cells; listed as Tranylcypromine hydrochloride, 10 µM

`N[C@@H]1C[C@H]1c1ccccc1` (racemic) [Tranylcypromine (hydrochloride), Tranylcypromine] was tested, and the “Non Amp - AMP (POC) 10 uM” value was −0.6348 POC.
